# Reference: PubChem BioAssay AID1259411 (Chemical Carcinogenesis Research Information System (CCRIS), 2018)
# Calls of active or inactive are those of the source. No rule for the calls is given here.
# System: rodent carcinogenicity bioassays, tumor incidence
# Experiment: CCRIS carcinogenicity studies
# Settings: Dose: 0, Dose: 0
# How it was run: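 Archive of carcinogenicity, mutagenicity, tumor promotion and tumor inhibition results drawn from journals, NCI reports and other sources, expert-reviewed; covers 1985-2011 and is no longer updated.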
structure (smiles),measurement,setting,value
c1ccc2occc2c1,carcinogen call,"Species: MOUSE, Strain/Sex: B6C3F1/FEMALE, Route: GAVAGE, 120, 240 MG/KG IN CORN OIL 5 D/WK FOR 103 WK (STUDY DURATION: 104 WK), 120, 240 MG/KG IN CORN OIL 5 D/WK FOR 103 WK (STUDY DURATION: 104 WK), Tumor Site: Type of Lesion: LUNG: ALVEOLAR/BRONCHIOLAR ADENOMA, ALVEOLAR/BRONCHIOLAR CARCINOMA, LIVER: HEPATOCELLULAR ADENOMA, HEPATOCELLULAR ADENOM",active; positive
same,carcinogen call,"Species: MOUSE, Strain/Sex: B6C3F1/MALE, Route: GAVAGE, 60, 120 MG/KG IN CORN OIL 5 D/WK FOR 103 WK (STUDY DURATION: 104 WK), 60, 120 MG/KG IN CORN OIL 5 D/WK FOR 103 WK (STUDY DURATION: 104 WK), Tumor Site: Type of Lesion: LUNG: ALVEOLAR/BRONCHIOLAR ADENOMA, ALVEOLAR/BRONCHIOLAR ADENOMA OR CARCINOMA, LIVER: HEPATOCELLULAR ADENOMA, HEPATOCELL",active; positive
same,carcinogen call,"Species: RAT, Strain/Sex: F344/FEMALE, Route: GAVAGE, 60, 120 MG/KG IN CORN OIL 5 D/WK FOR 103 WK (STUDY DURATION: 104 WK), 60, 120 MG/KG IN CORN OIL 5 D/WK FOR 103 WK (STUDY DURATION: 104 WK), Tumor Site: Type of Lesion: KIDNEY: TUBULAR CELL ADENOCARCINOMA",active; positive
same,carcinogen call,"Species: RAT, Strain/Sex: F344/MALE, Route: GAVAGE, 30, 60 MG/KG IN CORN OIL 5 D/WK FOR 103 WK (STUDY DURATION: 104 WK), 30, 60 MG/KG IN CORN OIL 5 D/WK FOR 103 WK (STUDY DURATION: 104 WK)",inactive; negative
Cn1c(NO)nc2ncc(-c3ccccc3)cc21,carcinogen call,"Species: RAT, Strain/Sex: ACI/SEG/MALE, Route: INTRAPERITONEAL, 50 UMOL/KG BW 2X/WK FOR 10 WK BEGINNING AT 3 D OF AGE (STUDY DURATION: 68 WK)",inactive; negative
CC[C@H]1NC(=O)[C@@H]2[C@H](Cl)[C@H](Cl)CN2C(=O)[C@@H](CO)NC(=O)C[C@H](c2ccccc2)NC(=O)[C@H](CO)NC1=O,carcinogen call,"Species: MOUSE, Strain/Sex: DDNI/MALE, Route: ORAL, 40, 60 UG IN DIET, 1/D FOR LIFE, 40, 60 UG IN DIET, 1/D FOR LIFE, Tumor Site: Type of Lesion: HEMATOPOIETIC SYSTEM: RETICULOENDOTHELIOMA, LIVER: CARCINOMA, HEPATOCELLULAR ADENOMA",active; positive
CCOC(=O)NCCOc1ccc(Oc2ccccc2)cc1,carcinogen call,"Species: Mouse, Strain/Sex: CD-1/Female (50/Group), Route: Oral, 30, 110, 420 ppm of 96.6% fenoxycarb in diet for 80 wk, study duration 80 wk, 30, 110, 420 ppm of 96.6% fenoxycarb in diet for 80 wk, study duration 80 wk",inactive; negative
same,carcinogen call,"Species: Mouse, Strain/Sex: CD-1/Male (50/Group), Route: Oral, 30, 110, 420 ppm of 96.6% fenoxycarb in diet for 80 wk, study duration 80 wk, 30, 110, 420 ppm of 96.6% fenoxycarb in diet for 80 wk, study duration 80 wk, Tumor Site: Type of Lesion: Lung: alveolar/bronchial adenomas and carcinomas, significant at 420 ppm only",active; positive
same,carcinogen call,"Species: Rat, Strain/Sex: Crl:CD(SD)BR/Female (50/Group), Route: Oral, 200, 600, 1800 ppm of 96.6% fenoxycarb in diet for 104 wk, study duration 104 wk, 200, 600, 1800 ppm of 96.6% fenoxycarb in diet for 104 wk, study duration 104 wk",inactive; negative
same,carcinogen call,"Species: Rat, Strain/Sex: Crl:CD(SD)BR/Male (50/Group), Route: Oral, 200, 600, 1800 ppm of 96.6% fenoxycarb in diet for 104 wk, study duration 104 wk, 200, 600, 1800 ppm of 96.6% fenoxycarb in diet for 104 wk, study duration 104 wk",inactive; negative
CN(C#N)N=O,carcinogen call,"Species: RAT, Strain/Sex: SPRAGUE-DAWLEY/FEMALE, Route: ORAL, 6.9 MG/KG IN 25 ML DRINKING WATER DAILY (STUDY DURATION: >11 MO), Tumor Site: Type of Lesion: FORESTOMACH: SQUAMOUS CELL CARCINOMA, ESOPHAGUS: SQUAMOUS CELL PAPILLOMA OR SQUAMOUS CELL CARCINOMA",active; positive
O=c1cc[nH]c(=O)[nH]1,carcinogen call,"Species: MOUSE, Strain/Sex: B6C3F1/FEMALE, Route: ORAL, 3% IN DIET FOR WK 1-6 OF STUDY THEN 0, 2.5% IN DIET FOR WK 7-96 (STUDY DURATION: 96 WK), 3% IN DIET FOR WK 1-6 OF STUDY THEN 0, 2.5% IN DIET FOR WK 7-96 (STUDY DURATION: 96 WK), Tumor Site: Type of Lesion: URINARY BLADDER: TRANSITIONAL CELL CARCINOMA",active; positive
same,carcinogen call,"Species: MOUSE, Strain/Sex: B6C3F1/MALE, Route: ORAL, 3% IN DIET FOR WK 1-6 OF STUDY THEN 0, 2.5% IN DIET FOR WK 7-96 (STUDY DURATION: 96 WK), 3% IN DIET FOR WK 1-6 OF STUDY THEN 0, 2.5% IN DIET FOR WK 7-96 (STUDY DURATION: 96 WK)",inactive; negative
same,carcinogen call,"Species: RAT, Strain/Sex: F344/FEMALE, Route: ORAL, 3% IN DIET FOR 104 WK (STUDY DURATION: 104 WK), Tumor Site: Type of Lesion: URINARY BLADDER: TRANSITIONAL CELL CARCINOMA",active; positive
same,carcinogen call,"Species: RAT, Strain/Sex: F344/MALE, Route: ORAL, 3% IN DIET FOR 104 WK (STUDY DURATION: 104 WK), Tumor Site: Type of Lesion: URINARY BLADDER: TRANSITIONAL CELL PAPILLOMA, TRANSITIONAL CELL CARCINOMA, RENAL PELVIS: PAPILLOMA, CARCINOMA",active; positive
ClC(Cl)c1ccccc1,carcinogen call,"Species: RAT, Strain/Sex: F344/FEMALE, Route: ORAL, 0.1, 0.5, 2% IN FEED FOR 104 WK (STUDY DURATION: 104 WK), 0.1, 0.5, 2% IN FEED FOR 104 WK (STUDY DURATION: 104 WK)",inactive; negative
same,carcinogen call,"Species: RAT, Strain/Sex: F344/MALE, Route: ORAL, 0.1, 0.5, 2% IN FEED FOR 104 WK (STUDY DURATION: 104 WK), 0.1, 0.5, 2% IN FEED FOR 104 WK (STUDY DURATION: 104 WK)",inactive; negative
CCCCC(CC)COC(=O)CCCCC(=O)OCC(CC)CCCC (stereo not given),carcinogen call,"Species: MOUSE, Strain/Sex: B6C3F1/FEMALE, Route: ORAL, 12000, 25000 PPM IN DIET FOR 102-104 WK (STUDY DURATION: 102-104 WK), 12000, 25000 PPM IN DIET FOR 102-104 WK (STUDY DURATION: 102-104 WK), Tumor Site: Type of Lesion: LIVER: CARCINOMA, CARCINOMA OR ADENOMA",active; positive
same,carcinogen call,"Species: MOUSE, Strain/Sex: B6C3F1/FEMALE, Route: ORAL, 12000, 25000 PPM IN DIET FOR 103 WK (STUDY DURATION: 105-106 WK), 12000, 25000 PPM IN DIET FOR 103 WK (STUDY DURATION: 105-106 WK), Tumor Site: Type of Lesion: LIVER: HEPATOCELLULAR CARCINOMA",active; positive
same,carcinogen call,"Species: MOUSE, Strain/Sex: B6C3F1/MALE, Route: ORAL, 12000, 25000 PPM IN DIET FOR 102-104 WK (STUDY DURATION: 102-104 WK), 12000, 25000 PPM IN DIET FOR 102-104 WK (STUDY DURATION: 102-104 WK), Tumor Site: Type of Lesion: LIVER: CARCINOMA OR ADENOMA",active; positive
same,carcinogen call,"Species: MOUSE, Strain/Sex: B6C3F1/MALE, Route: ORAL, 12000, 25000 PPM IN DIET FOR 103 WK (STUDY DURATION: 104-106 WK), 12000, 25000 PPM IN DIET FOR 103 WK (STUDY DURATION: 104-106 WK), Tumor Site: Type of Lesion: LIVER: HEPATOCELLULAR CARCINOMA, HEPATOCELLULAR ADENOMA OR CARCINOMA",active; positive
same,carcinogen call,"Species: RAT, Strain/Sex: F344/FEMALE, Route: ORAL, 12000, 25000 PPM IN DIET FOR 102-104 WK (STUDY DURATION: 102-104 WK), 12000, 25000 PPM IN DIET FOR 102-104 WK (STUDY DURATION: 102-104 WK)",inactive; negative
same,carcinogen call,"Species: RAT, Strain/Sex: F344/FEMALE, Route: ORAL, 12000, 25000 PPM IN DIET FOR 103 WK (STUDY DURATION: 104-107 WK), 12000, 25000 PPM IN DIET FOR 103 WK (STUDY DURATION: 104-107 WK)",inactive; negative
same,carcinogen call,"Species: RAT, Strain/Sex: F344/MALE, Route: ORAL, 12000, 25000 PPM IN DIET FOR 102-104 WK (STUDY DURATION: 102-104 WK), 12000, 25000 PPM IN DIET FOR 102-104 WK (STUDY DURATION: 102-104 WK)",inactive; negative
same,carcinogen call,"Species: RAT, Strain/Sex: F344/MALE, Route: ORAL, 12000, 25000 PPM IN DIET FOR 103 WK (STUDY DURATION: 104-107 WK), 12000, 25000 PPM IN DIET FOR 103 WK (STUDY DURATION: 104-107 WK)",inactive; negative
